In patent US10845368B2, “Nanoparticles for mitochondrial trafficking of agents” (UNIVERSITY OF GEORGIA RESEARCH FOUNDATION, INC., priority 2012, dated 2020):

Tests used:
HeLa cells = experiment: MTT cytotoxicity assay; assay type: cell-based, human
Source text: FIGS. 11A-C are bar graphs showing cytotoxicity profiles of targeted LND nanoparticles, nontargeted LND nanoparticles, free LND (A); targeted α-TOS nanoparticles, nontargeted α-TOS nanoparticles, free α-TOS in HeLa cells (B); and empty targeted nanoparticles, and empty nontargeted nanoparticles in HeLa cells (C).
The selectivity and efficiency of LND and α-TOS against cancer cells depend on their ability to target the mitochondria of cells. To evaluate the efficacy of our targeted nanoparticles in delivering LND and α-TOS, we performed MTT assays in HeLa cells. […] Preferential localization in the target organelle accounts for the enhanced cytotoxicity of both LND and α-TOS encapsulated in the targeted nanoparticles.

3T3-L1 cells = conditions: 3T3-L1, 100 μM
Description: To examine whether encapsulation of 2,4-DNP in targeted nanoparticles can suppress the induced differentiation of 3T3-L1 preadipocytes at a low dosage that is insufficient to exert cytotoxicity, we continuously exposed 3T3-L1 cells to 1 μM, 4 μM, 25 μM, and 100 μM targeted 2,4-DNP nanoparticles (FIGS. 12A-D and 13) during the differentiation period for 7 d, and evaluated cell viability and intracellular lipid accumulation. Nontargeted 2,4-DNP nanoparticles and free 2,4-DNP were used as controls.

Structure (SMILES) | IC50 (HeLa cells) | cellular toxicity (3T3-L1 cells)
Cc1c(C)c2c(c(C)c1OC(=O)CCC(=O)O)CC[C@@](C)(CCC[C@H](C)CCC[C@H](C)CCCC(C)C)O2 [free α-TOS, α-tocopheryl succinate] | 381 ± 5 nM | –
O=[N+]([O-])c1ccc(O)c([N+](=O)[O-])c1 [Free 2,4-DNP, 2,4-dinitrophenol] | – | demonstrated cellular toxicity
